Data on two compounds can be found in patent publication US9453192B2, “High-acidity vinegar and method for producing the same” (priority 2012, dated 2016).

Where two headings read alike, the source gives them in different places.

Assay [1] concerns Acetobacter altoacetigenes MH-24 (FERM BP-491). An excerpt: (§1) The present invention relates to a method for producing a high-acidity vinegar having acidity of 10% to 25%, particularly 15% to 25% by brewing, i.e., acetic acid fermentation. In general, the acidity of vinegar means the concentration of acetic acid (w/v %) in the vinegar. The acidity referred to herein means the acetic acid concentration determined by conducting neutralization titration of the sample (vinegar) with phenolphthalein as an indicator and 1N sodium hydroxide aqueous solution in the manner known to persons skilled in the art.
(§2) A culture solution (2.5 L) containing acetic acid (8 w/v %), ethanol (2 v/v %), Acetozym DS+2 (product of FRINGS; 0.15 w/v %), and a variety of additives at given concentrations was introduced into a 5 L-volume jar fermenter. The total nitrogen content of the culture solution was 0.006 w/v %. Cryopreserved Acetobacter altoacetigenes MH-24 (FERM BP-491) was inoculated into the culture solution to start acetic acid fermentation. Submerged fermentation involving aeration stirring was adopted for the fermentation. Fermentation was conducted under the conditions of a temperature at 30° C., a rotative speed of 600 rpm, and an aeration volume of 0.15 vvm.
(§3) After the start of fermentation, 95% ethanol was fed to the fermentation liquid until the acidity (acetic acid concentration: w/v %) of the fermentation liquid exceeded 15% so as to maintain the ethanol concentration in the fermentation liquid at 1.5 to 3 v/v %. At the time point at which the acidity exceeded 15% (approximately 15.5%) and the ethanol concentration reached about 0.5 v/v %, the fermentation liquid was pulled out such that approximately half of the total fermentation liquid volume is remained.
After the portion of the fermentation liquid was pulled out, the above components were added again without discontinuation of aeration and stirring of the remaining fermentation liquid such that the volume of the fermentation liquid was adjusted to 2.5 L and the composition of the fermentation liquid became equivalent to the composition of the original culture solution. Then, fermentation was continued in the above manner. Thereafter the cycle, in which fermentation was conducted until the acidity exceeded 15% (approximately 15.5%), approximately half of the total volume of the fermentation liquid was pulled out and the above components were added again to restart fermentation with decreased acidity, is repeated to conduct semi-continuous fermentation. Seven times repeats of the cycle from the start of fermentation to re-introduction of the components was regarded as one examination. Six examinations were conducted with each different condition of additives. […]

The test system is the same in assay [2]. Nature of the assay: Semi-continuous acetic acid fermentation, culture solution with Acetozym DS+2 and additives (Example 1). In kind it is cell-based. The conditions noted are these: for Final acidity: acidity when a portion of the fermentation liquid was pulled out; for Fermentation time: average time of one cycle (2nd to 7th cycles) until acidity exceeded 15%; for Productivity: rate of increase in acidity per hour.
Text: as §1, §2, §3
After the portion of the fermentation liquid was pulled out, the above components were added again without discontinuation of aeration and stirring of the remaining fermentation liquid such that the volume of the fermentation liquid was adjusted to 2.5 L and the composition of the fermentation liquid became equivalent to the composition of the original culture solution. Then, fermentation was continued in the above manner. Thereafter the cycle, in which fermentation was conducted until the acidity exceeded 15% (approximately 15.5%), approximately half of the total volume of the fermentation liquid was pulled out and the above components were added again to restart fermentation with decreased acidity, is repeated to conduct semi-continuous fermentation. Seven times repeats of the cycle from the start of fermentation to re-introduction of the components was regarded as one examination. Six examinations were conducted with each different condition of additives. Table 1 summarizes the average time duration required for one cycle, i.e., from the restart of fermentation to the time point at which the acidity exceeded 15%, (the average time of 2nd to 7th cycles), final acidity (acidity when a portion of the fermentation liquid was pulled out), and productivity (the rate of increase in acidity per hour) with the types and amounts of additives.

[3] abbreviates: Glutathione 220 μM, 4 cycle repetitions.

In assay [1] (setting [3]), `N[C@@H](CCC(=O)N[C@@H](CS)C(=O)NCC(=O)O)C(=O)O` [Glutathione] displayed a Fermentation time of 51.3 h and a Final acidity of 15.4%. The Productivity in assay [1] (Glutathione 220 μM, 4 cycle repetitions, rate of increase in acidity per hour) amounted to 0.144 %/h. In addition, the Effect on productivity entry in assay [1] (Glutathione used as additive (220 μM), versus no additive) was “productivity was significantly improved”.
In assay [2] (L-cystine 18 μM), `N[C@@H](CSSC[C@H](N)C(=O)O)C(=O)O` [L-cystine] showed a Final acidity of 15.4%, a Fermentation time of 48.9 h and a Productivity of 0.151 %/h. In assay [2] (L-cystine 45 μM), this compound displayed a Final acidity of 15.3%, a Fermentation time of 41.7 h and a Productivity of 0.175 %/h. Further, in assay [2] (L-cystine 90 μM), the Final acidity was 15.3%, the Fermentation time is 37.5 h and the Productivity was found to be 0.195 %/h. For the same compound, in assay [2] (L-cystine alone, 18 μM (Exam 2)), the “Effect on productivity as compared with Exam 1 (no additive)” value is given as “effect of improving productivity was confirmed”.
